{"source": "patent US20060052350A1", "about": "“Crystalline forms of 1,24(S)-dihydroxy vitamin D2” (priority 2004, published 2006)", "test": "Stability of the crystalline forms exposed to 100% relative humidity (resulting form identified by powder XRD)", "assay_type": "physicochemical", "settings": "100% relative humidity for about 1 week at room temperature", "experimental": "The crystal forms were identified using an Applied Research Laboratory (SCINTAG) powder X-ray diffractometer model X'TRA equipped with a solid state detector. The crystal samples were analyzed using a round aluminum sample holder with zero background and copper radiation of 1.5418 Å."}
{"smiles": "C=C1/C(=C\\C=C2/CCCC3(C)C2CCC3[C@H](C)/C=C/[C@@](C)(O)C(C)C)C[C@@H](O)C[C@@H]1O", "note": "(stereo partly drawn) [Form B, 1,24(S)-dihydroxy vitamin D2]", "values": [{"measurement": "Maintenance of crystal structure (no transformation to another crystalline form) on humidity exposure", "result": "maintain their crystal structure"}]}
